Read-outs that look alike come from different tables or passages of the source.
Tests used:
STAT5 phosphorylation = STAT5 phosphorylation in lymphocytes by flow cytometry after administration in mice; type: in vivo
Description: Conventional approaches, such as those involving radiolabeling a compound, administering it in vivo, and determining its clearance, can be used to determine whether a compound proposed to be a long-acting IL-2Rβ biased agonist is “long-acting”. For the purposes herein, the long acting nature of an IL-2Rβ biased agonist is typically determined using flow cytometry to measure STAT5 phosphorylation in lymphocytes at various time points after administration of the agonist to be evaluated in mice. As a reference, the signal is lost by around 24 hours with IL-2, but is sustained for a period greater than that for a long-acting IL-2Rβ-biased agonist.

[1] = system: subcutaneous B16F10 mouse melanoma tumors; experiment: Immune cells in tumor microenvironment by flow cytometry, B16F10 melanoma model; type: in vivo, mice; conditions: day 7; single dose of RSLAIL-2 or 5 doses of aldesleukin
TLR7/8 = experiment: TLR7/8-dependent cytokine production in plasma after single 10 μg intratumoral administration, CT26 tumor bearing mice; type: in vivo, Balb/c mice
Protocol: Hank's Balanced Salt Solution) was administered intratumorally to Balb/c mice bearing CT26 tumor. […] (Conjugate doses and concentrations are expressed based on TLR 7/8 agonist (e.g., resiquimod or other TLR 7/8 agonist) content, wherein the mass of the TLR 7/8 agonist is expressed independent of PEG mass). Plasma was collected at pre-determined time points for analysis of level of IFN-gamma, IL-2, IL-4, IL5, IL-6, IL-1 beta, IL-10, IL-12p70, KC/GRO, TNF-alpha, and IFN-alpha. For assessing IFN-gamma, IL-2, IL-4, IL5, IL-6, IL-1 beta, IL-10, IL-12p70, KC/GRO, and TNF alpha, an electrochemiluminescence assay was performed on duplicate samples using capture antibody precoated 96 well multispot plates from Meso Scale Discovery (MSD; Gaithersburg, Md., US). […] Plates were immediately read using SECTOR Imager 2400 and data was quantitated using Discovery Workbench software version 4.0 (MSD, Gaithersburg, Md., US). Mouse IFN alpha was measured with the Verikine mouse Interferon-Alpha ELISA kit (PBL, Piscataway, N.J., USA), according to the instructions of the manufacturer. After the addition of a stop solution, the absorbance at 450 nm was determined using BioTek μQuant microplate reader (Biotek; Winooski, Vt., USA). The ELISA data was quantitated using Biotek Gen5 software (Biotek; Winooski, Vt., USA). Data are represented as the mean of the fold-change of replicates.

TLR7 pathway = conditions: 2 hours and 6 hours following treatment with Compound 6
Protocol: Cytokine analysis (in CT26 tumor-bearing mice): Tumor and plasma samples were obtained at multiple time points following administration for cytokine analysis. RNA was isolated from treated tumors to assess induction of type I interferon- and NFκB-dependent gene expression. A panel of pro-inflammatory cytokines was measured from tumor tissue and plasma by multiplex protein measurement assay.

hTLR7 = target: T1, hTLR7 (Homo sapiens, UniProt Q9NYK1); experiment: SEAP reporter gene assay in HEK293 cells stably transfected with human TLR receptor; type: cell-based; conditions: downstream hTLR7 and hTLR8
T1 construct: expressed in transfected cells; host or cells: HEK293
T1 sequence (Q9NYK1 27-1049): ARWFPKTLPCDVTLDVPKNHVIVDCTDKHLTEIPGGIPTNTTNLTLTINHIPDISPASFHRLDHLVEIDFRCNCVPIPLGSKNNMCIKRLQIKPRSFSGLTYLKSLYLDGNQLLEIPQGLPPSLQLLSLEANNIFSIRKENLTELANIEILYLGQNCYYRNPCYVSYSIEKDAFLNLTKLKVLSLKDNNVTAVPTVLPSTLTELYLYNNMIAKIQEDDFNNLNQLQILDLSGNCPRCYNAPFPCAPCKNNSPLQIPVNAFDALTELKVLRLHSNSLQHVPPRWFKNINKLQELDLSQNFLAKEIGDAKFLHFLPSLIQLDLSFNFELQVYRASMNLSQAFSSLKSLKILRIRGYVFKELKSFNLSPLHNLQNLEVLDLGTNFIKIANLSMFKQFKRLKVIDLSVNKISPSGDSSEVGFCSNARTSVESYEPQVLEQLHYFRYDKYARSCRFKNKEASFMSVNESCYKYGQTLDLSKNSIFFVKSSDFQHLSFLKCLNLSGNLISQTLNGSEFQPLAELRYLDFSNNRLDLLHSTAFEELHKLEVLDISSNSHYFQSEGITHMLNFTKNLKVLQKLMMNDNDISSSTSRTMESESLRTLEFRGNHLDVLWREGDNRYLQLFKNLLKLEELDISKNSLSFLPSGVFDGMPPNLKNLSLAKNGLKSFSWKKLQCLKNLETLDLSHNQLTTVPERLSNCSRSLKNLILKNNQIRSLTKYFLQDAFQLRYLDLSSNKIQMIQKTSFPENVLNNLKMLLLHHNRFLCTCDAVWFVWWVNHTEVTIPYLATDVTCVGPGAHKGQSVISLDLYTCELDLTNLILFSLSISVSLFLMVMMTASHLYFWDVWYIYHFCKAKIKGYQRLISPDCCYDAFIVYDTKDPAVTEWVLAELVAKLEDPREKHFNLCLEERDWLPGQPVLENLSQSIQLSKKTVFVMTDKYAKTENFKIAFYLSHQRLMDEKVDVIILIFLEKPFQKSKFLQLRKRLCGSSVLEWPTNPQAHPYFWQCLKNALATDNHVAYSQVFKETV
Description: Parental cell lines (Null1 and Null1K, stably transfected with the SEAP reports but without hTLR receptor expression) were used as negative controls.

[2] = system: proinflammatory cytokines IFNα, IFNγ, TNFα, IL-6 and IL-12; experiment: Plasma cytokine induction after Compound 6 or resiquimod with staggered RSLAIL-2 in CT26 model; type: in vivo, Balb/c mice
Protocol: The concentration of proinflammatory cytokines IFNα, IFNγ, TNFα, IL-6 and IL-12 was determined in plasma by multiplex protein measurement assay at indicated time points post dose.

[3] = system: bilateral CT26 subcutaneous tumors
[4] = 2 hours after single 10 μg intratumoral administration
[5] = 6 hours after single 10 μg intratumoral administration
[6] = plasma, 10 μg intra/peritumoral

Description for EMT6 tumor cells: In vivo model: Mice used were ˜10 weeks old female Balb/c strain with 2 million EMT6 tumor cells implanted on each flank. Cells were allowed to mature into tumors for 7 days reaching a volume of 75-150 mm^3 volume.
Measurements: Tumor volumes were collected by caliper measurements 2-3 times per week and calculated using formula: L×W^2/2 where L is tumor length and W is tumor width.

## aldesleukin: clinically available IL-2; recombinant IL-2 referred to as aldesleukin
STAT5 phosphorylation
  time by which STAT5 phosphorylation signal is lost: around 24 hours
[1]
  ratio of CD8/Treg in the tumor: 18

## 4-arm-PEG20k-CM-glycine-N-R848 [Compound 6]
TLR7/8; [4]
  IFNa fold change (treated/vehicle): + (+<50)
  IL6 fold change (treated/vehicle): ++ (50≤++<200)
  IL12 fold change (treated/vehicle): + (+<50)
  KC/GRO fold change (treated/vehicle): + (+<50)
  TNFa fold change (treated/vehicle): + (+<50)
TLR7/8; [5]
  IFNg fold change (treated/vehicle): +++ (10≤+++<20)
  IL10 fold change (treated/vehicle): + (+<5)
TLR7 pathway
  concentration of systemic cytokines compared with tumor (IL-6, KC/GRO, TNF-α, IL-1β, IL-5, IFN-α, IFN-γ, IL-2, IL-12p70): significantly less than that in the tumor
hTLR7
  fold higher concentration for reporter activation compared to resiquimod: > 20 fold
[2]; 1 μg single intra/peritumoral dose
  induction of cytokines in plasma, in words: very modest induction of all cytokines in plasma
[2]; 10 μg single intra/peritumoral dose
  pro-inflammatory cytokine induction in blood, in words: robust pro-inflammatory cytokine induction in blood
[2]; [6]
  time of peak level of IFN-γ: 6 h
  time of peak levels of IFNα, TNFα, IL-6 and IL-12: 2 h
EMT6 tumor cells; day 0 after treatment start
  Survival Proportions: ++++ (75%≤++++<100%)
EMT6 tumor cells; day 3 after treatment start
  Survival Proportions: ++++ (75%≤++++<100%)
EMT6 tumor cells; day 8 after treatment start
  Survival Proportions: ++++ (75%≤++++<100%)
EMT6 tumor cells; day 13 after treatment start
  Survival Proportions: ++++ (75%≤++++<100%)
EMT6 tumor cells; day 15 after treatment start
  Survival Proportions: ++++ (75%≤++++<100%)
EMT6 tumor cells; day 20 after treatment start
  Survival Proportions: +++ (50%≤+++<75%)
EMT6 tumor cells; day 27 after treatment start
  Survival Proportions: ++ (25%≤++<50%)
EMT6 tumor cells; day 34 after treatment start
  Survival Proportions: + (0%≤+<25%)
EMT6 tumor cells; day 42 after treatment start
  Survival Proportions: + (0%≤+<25%)
EMT6 tumor cells; day 48 after treatment start
  Survival Proportions: + (0%≤+<25%)
EMT6 tumor cells; day 55 after treatment start
  Survival Proportions: none
EMT6 tumor cells; end of the study at day 55 after commencement of dosing
  survival of the animals: no surviving animals
[3]; after combination treatment with RSLAIL-2 (0.8 mg/kg i.v. four days after Compound 6), day 7
  CD8+ T cells in tumors: selective Compound 6-dose dependent increase
[3]; after combination treatment with RSLAIL-2, day 7
  relative fraction of regulatory T cells in tumors: decreased dramatically
[3]; both treatment groups (10 μg or 0.1 μg) after RSLAIL-2
  CD8:Treg ratio in the blood: overall reduction
[3]; one day after treatment, 10 μg dose
  intratumoral neutrophils in treated tumors: increase in intratumoral neutrophils

— patent US11744898B2, “Multi-arm polymer conjugates of TLR agonist compounds and related immunotherapeutic treatment methods” (Nektar Therapeutics, priority 2017, dated 2023)
